One experiment deals with T1, human Cereblon WT GST-tagged protein (Homo sapiens, UniProt Q96SW2).
T1 construct: purchased CISBIO 64BDCRBNPEH
T1 sequence (Q96SW2 whole entry): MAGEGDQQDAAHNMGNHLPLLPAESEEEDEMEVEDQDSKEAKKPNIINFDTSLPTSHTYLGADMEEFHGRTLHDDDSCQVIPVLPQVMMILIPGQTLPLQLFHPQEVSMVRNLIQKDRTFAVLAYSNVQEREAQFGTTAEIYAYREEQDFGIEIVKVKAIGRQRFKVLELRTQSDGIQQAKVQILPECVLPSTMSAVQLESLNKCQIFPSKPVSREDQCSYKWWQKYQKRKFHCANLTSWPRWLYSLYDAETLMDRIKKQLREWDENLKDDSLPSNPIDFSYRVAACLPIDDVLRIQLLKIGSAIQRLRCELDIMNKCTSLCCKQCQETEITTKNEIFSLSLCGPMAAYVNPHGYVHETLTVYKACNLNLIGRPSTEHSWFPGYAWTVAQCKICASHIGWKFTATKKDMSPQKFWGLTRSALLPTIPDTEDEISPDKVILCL
In words: CRBN binding, HTRF CEREBLON BINDING kit.
Conditions: not given
An outline of the steps: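 HTRF competition in which test compounds displace a Thalidomide-Re tracer from GST-tagged human Cereblon WT, detected with a GST Eu antibody. Incubation lasted 3 hours at room temperature, with emission read at 620 and 665 nm. Inhibition rate was derived from 665/620 ratios relative to blank and solvent control wells.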
One may read the IC50 as the concentration needed to halve the response being measured. In turn, `C=CC(=O)Nc1cc(Nc2nccc(-c3cn(C)c4ccccc34)n2)c(OC)cc1N(C)CCN(C)C` [osimertinib, reference compound] showed an IC50 of more than 10 µM.

The experiment is the same for the next values; noted with them: CRBN binding, HTRF CEREBLON BINDING kit.
Consider `COc1cc(N2CCC(N(C)Cc3cc(C4CCC(=O)NC4=O)cnc3F)CC2)ccc1Nc1ncc(Cl)c(Nc2ccccc2P(C)(C)=O)n1` (stereo not drawn) [GT-07696, 3-(5-(((1-(4-((5-chloro-4-((2-(dimethylphosphoryl)phenyl)amino)pyrimidin-2-yl)amino)-3-methoxyphenyl)piperidin-4-yl)(methyl)amino)methyl)-6-fluoropyridin-3-yl)piperidine-2,6-dione], for which the IC50 is less than 0.5 µM.

As for `COc1cc(N2CCC(N(C)Cc3ccc(C4CCC(=O)NC4=O)cn3)CC2)ccc1Nc1ncc(Cl)c(Nc2ccccc2P(C)(C)=O)n1` (stereo not drawn) [GT-07698, 3-(6-(((1-(4-((5-chloro-4-((2-(dimethylphosphoryl)phenyl)amino)pyrimidin-2-yl)amino)-3-methoxyphenyl)piperidin-4-yl)(methyl)amino)methyl)pyridin-3-yl)piperidine-2,6-dione], the IC50 lay in the range of 1 to 1.9 µM. `COc1cc(N2CCC(N(C)Cc3cncc(C4CCC(=O)NC4=O)c3)CC2)ccc1Nc1ncc(Cl)c(Nc2ccccc2P(C)(C)=O)n1` (stereo not drawn) [GT-07699, 3-(5-(((1-(4-((5-chloro-4-((2-(dimethylphosphoryl)phenyl)amino)pyrimidin-2-yl)amino)-3-methoxyphenyl)piperidin-4-yl)(methyl)amino)methyl)pyridin-3-yl)piperidine-2,6-dione] had a half-maximal inhibitory concentration (IC50) of 0.5 to 1 µM. Same read-out and setting: next, `CCc1cc2c(cc1N1CCC(N3CCN(Cc4cncc(N5CCC(=O)NC5=O)c4)CC3)CC1)C(C)(C)c1[nH]c3cc(C#N)ccc3c1C2=O` [GT-07702, 8-(4-(4-((5-(2,4-dioxotetrahydropyrimidin-1(2H)-yl)pyridin-3-yl)methyl)piperazin-1-yl)piperidin-1-yl)-9-ethyl-6,6-dimethyl-11-oxo-6,11-dihydro-5H-benzo[b]carbazole-3-carbonitrile]: less than 0.5 µM; `CCc1cc2c(cc1N1CCC(N3CCN(Cc4cc(C5CCC(=O)NC5=O)cnc4F)CC3)CC1)C(C)(C)c1[nH]c3cc(C#N)ccc3c1C2=O` (stereo not drawn) [GT-07703, 8-(4-(4-((5-(2,6-dioxopiperidin-3-yl)-2-fluoropyridin-3-yl)methyl)piperazin-1-yl)piperidin-1-yl)-9-ethyl-6,6-dimethyl-11-oxo-6,11-dihydro-5H-benzo[b]carbazole-3-carbonitrile]: less than 0.5 µM. The same measure, in the same setting: next, `CCc1cc2c(cc1N1CCC(N3CCN(Cc4ccnc(C5CCC(=O)NC5=O)c4)CC3)CC1)C(C)(C)c1[nH]c3cc(C#N)ccc3c1C2=O` (stereo not drawn) [GT-07704, 8-(4-(4-((2-(2,6-dioxopiperidin-3-yl)pyridin-4-yl)methyl)piperazin-1-yl)piperidin-1-yl)-9-ethyl-6,6-dimethyl-11-oxo-6,11-dihydro-5H-benzo[b]carbazole-3-carbonitrile]: 1 to 1.9 µM.

In turn, `CCc1cc2c(cc1N1CCC(N3CCN(Cc4ccc(C5CCC(=O)NC5=O)cn4)CC3)CC1)C(C)(C)c1[nH]c3cc(C#N)ccc3c1C2=O` (stereo not drawn) [GT-07705, 8-(4-(4-((5-(2,6-dioxopiperidin-3-yl)pyridin-2-yl)methyl)piperazin-1-yl)piperidin-1-yl)-9-ethyl-6,6-dimethyl-11-oxo-6,11-dihydro-5H-benzo[b]carbazole-3-carbonitrile] came in with an IC50 of less than 0.5 µM. Same read-out and setting: next, `CCc1cc2c(cc1N1CCC(N3CCN(Cc4cncc(C5CCC(=O)NC5=O)c4)CC3)CC1)C(C)(C)c1[nH]c3cc(C#N)ccc3c1C2=O` (stereo not drawn) [GT-07706, 8-(4-(4-((5-(2,6-dioxopiperidin-3-yl)pyridin-3-yl)methyl)piperazin-1-yl)piperidin-1-yl)-9-ethyl-6,6-dimethyl-11-oxo-6,11-dihydro-5H-benzo[b]carbazole-3-carbonitrile]: less than 0.5 µM. For the compound `COc1cc(N2CCN(Cc3cncc(N4CCC(=O)NC4=O)c3)CC2)ccc1Nc1ncc(Cl)c(Nc2ccccc2P(C)(C)=O)n1` [GT-07709, 1-(5-((4-(4-((5-chloro-4-((2-(dimethylphosphoryl)phenyl)amino)pyrimidin-2-yl)amino)-3-methoxyphenyl)piperazin-1-yl)methyl)pyridin-3-yl)dihydropyrimidine-2,4(1H,3H)-dione], the IC50 lay in the range of 0.5 to 1 µM. Still for that read-out and setting: next, `COc1cc(N2CCN(Cc3cc(C4CCC(=O)NC4=O)cnc3F)CC2)ccc1Nc1ncc(Cl)c(Nc2ccccc2P(C)(C)=O)n1` (stereo not drawn) [GT-07710, 3-(5-((4-(4-((5-chloro-4-((2-(dimethylphosphoryl)phenyl)amino)pyrimidin-2-yl)amino)-3-methoxyphenyl)piperazin-1-yl)methyl)-6-fluoropyridin-3-yl)piperidine-2,6-dione]: less than 0.5 µM; `COc1cc(N2CCN(Cc3ccc(C4CCC(=O)NC4=O)cn3)CC2)ccc1Nc1ncc(Cl)c(Nc2ccccc2P(C)(C)=O)n1` (stereo not drawn) [GT-07713, 3-(6-((4-(4-((5-chloro-4-((2-(dimethylphosphoryl)phenyl)amino)pyrimidin-2-yl)amino)-3-methoxyphenyl)piperazin-1-yl)methyl)pyridin-3-yl)piperidine-2,6-dione]: 0.5 to 1 µM.

Regarding `COc1cc(N2CCN(Cc3cncc(C4CCC(=O)NC4=O)c3)CC2)ccc1Nc1ncc(Cl)c(Nc2ccccc2P(C)(C)=O)n1` (stereo not drawn) [GT-07714, 3-(5-((4-(4-((5-chloro-4-((2-(dimethylphosphoryl)phenyl)amino)pyrimidin-2-yl)amino)-3-methoxyphenyl)piperazin-1-yl)methyl)pyridin-3-yl)piperidine-2,6-dione], the half-inhibitory concentration (IC50) was less than 0.5 µM. Turning to `C=CC(=O)N1CCC(c2ccc(C(N)=O)c(-c3ccc(Oc4ccccc4)cc3)n2)CC1` [Orelabrutinib, reference compound], the concentration for half-maximal inhibition (IC50) was more than 10 µM. On the same count and under the same terms, the figure for `CN(C)C/C=C/C(=O)Nc1cc2c(Nc3ccc(F)c(Cl)c3)ncnc2cc1O[C@H]1CCOC1` [afatinib] is more than 10 µM; for `C#Cc1cccc(Nc2ncnc3cc(OCCOC)c(OCCOC)cc23)c1` [erlotinib, reference compound] it is more than 10 µM. In the case of `C=CC(=O)N1CCC[C@@H](n2nc(-c3ccc(Oc4ccccc4)cc3)c3c(N)ncnc32)C1` [ibrutinib, Ibrutinib, reference compound], the IC50 is more than 10 µM.

The same experiment, now with this note: CRBN binding, HTRF; compound at 0.5 μM.
Regarding `COc1cc2nn(C3CCN(Cc4cc(N5CCC(=O)NC5=O)cnc4F)CC3)cc2cc1NC(=O)c1cccc(C(F)(F)F)c1` [GT-07781, N-(2-(1-((5-(2,4-dioxotetrahydropyrimidin-1(2H)-yl)-2-fluoropyridin-3-yl)methyl)piperidin-4-yl)-6-methoxy-2H-indazol-5-yl)-3-(trifluoromethyl)benzamide], the “Inhibition rate (%) at 0.5 μM” value was “a1 (10% < a1 ≤ 20%)”.

Still in this experiment, the particulars now being: CRBN binding, HTRF; compound at 0.5 μM; read-out: Inhibition rate (%) at 0.5 μM.
A word on the inhibition: it is the percentage by which the read-out fell short of the control. On to `CC1(C)CCC(c2ccc(Cl)cc2)=C(CN2CCN(c3ccc(C(=O)NS(=O)(=O)c4ccc(N[C@H](CCN5CC6CCC(C5)N6Cc5ccc(C6CCC(=O)NC6=O)cc5)CSc5ccccc5)c(S(=O)(=O)C(F)(F)F)c4)cc3)CC2)C1` (stereo partly drawn) [GT-07858, 4-(4-((4′-chloro-4,4-dimethyl-3,4,5,6-tetrahydro-[1,1′-biphenyl]-2-yl)methyl)piperazin-1-yl)-N-((4-(((2R)-4-(8-(4-(2,6-dioxopiperidin-3-yl)benzyl)-3,8-diazabicyclo[3.2.1]octan-3-yl)-1-(phenylthio)butan-2-yl)amino)-3-((trifluoromethyl)sulfonyl)phenyl)sulfonyl)benzamide], for which the inhibition at 0.5 µM was 30 to 40%.

The experiment is the same for the next values; noted with them: CRBN binding, HTRF; compound at 2 μM.
In the case of `COc1cc2nn(C3CCN(Cc4cc(N5CCC(=O)NC5=O)cnc4F)CC3)cc2cc1NC(=O)c1cccc(C(F)(F)F)c1` [GT-07781, N-(2-(1-((5-(2,4-dioxotetrahydropyrimidin-1(2H)-yl)-2-fluoropyridin-3-yl)methyl)piperidin-4-yl)-6-methoxy-2H-indazol-5-yl)-3-(trifluoromethyl)benzamide], the “Inhibition rate (%) at 2 μM” value is listed as “a5 (53% < a5 ≤ 60%)”.

The same experiment, now with this note: CRBN binding, HTRF; compound at 2 μM; read-out: Inhibition rate (%) at 2 μM.
For the compound `CC1(C)CCC(c2ccc(Cl)cc2)=C(CN2CCN(c3ccc(C(=O)NS(=O)(=O)c4ccc(N[C@H](CCN5CC6CCC(C5)N6Cc5ccc(C6CCC(=O)NC6=O)cc5)CSc5ccccc5)c(S(=O)(=O)C(F)(F)F)c4)cc3)CC2)C1` (stereo partly drawn) [GT-07858, 4-(4-((4′-chloro-4,4-dimethyl-3,4,5,6-tetrahydro-[1,1′-biphenyl]-2-yl)methyl)piperazin-1-yl)-N-((4-(((2R)-4-(8-(4-(2,6-dioxopiperidin-3-yl)benzyl)-3,8-diazabicyclo[3.2.1]octan-3-yl)-1-(phenylthio)butan-2-yl)amino)-3-((trifluoromethyl)sulfonyl)phenyl)sulfonyl)benzamide], the inhibition at 2 µM was 60 to 80%.

(Values after US20260274829A1, “NEW E3 UBIQUITIN LIGASE LIGAND, PROTEIN DEGRADATION AGENT AND USE THEREOF” (GLUETACS THERAPEUTICS (SHANGHAI) CO., LTD., priority 2023, published 2026).)
